Assay: Quantification of cyclodextrin associated with the nanoparticles (HPLC-ELSD)
Type: physicochemical
Settings: PVM/MA 100 mg, cyclodextrin 25 mg, incubation 30 min; n=12
Method: The analysis was conducted in a 1100 series LC model chromatograph (Agilent, Waldbornn, Germany) and the data was analyzed in a Hewlett-Packard computer by means of the Chem-Station G2171 program (Agueros et al., J. Pharm. and Biomed. Anal., 39 (2005) 495-502).
For the sample analysis, the supernatants obtained after the purification process of the nanoparticles were diluted up to 10 ml with purified water. After adding the internal standard (PEG 6000), 1 ml aliquots of supernatant were taken as a sample. The samples were analyzed using a Zorbax Eclipse XDB-Phenyl column (Agilent 150 mm×2.1 mm) and a mixture of water/acetonitrile in a gradient (see Table 1) as a mobile phase at a flow of 0.25 ml/min.
The conditions of the detector (ELSD) were optimized until achieving the maximum sensitivity according to the gradient used in the mobile phase (Nebulizer Temperature: 115° C.; Nitrogen Flow: 3.2 ml/min). The chromatographic separation of the different cyclodextrins, of PVM/MA and of the internal standard (PEG 6000) was carried out in less than 15 minutes. The retention times were:
In the case of the quantification of aminated cyclodextrin [e.g. 6-monodeoxy-6-monoamino-β-cyclodextrin (NH-β-CD)] associated to the nanoparticles, a variant of the above described method was used to prevent the overlapping of the peaks of the cyclodextrin and the polymer. Therefore, the samples were analyzed using an NH2-Zorbax column (Agilent 4.6×150 mm, 5 μm), heated to 40° C. and a mixture of methanol/water (80/20 v/v) as a mobile phase at a flow of 1 ml/min. The conditions of the detector (ELSD) were the following: Nebulizer Temperature: 71° C. and Nitrogen Flow: 1.9 ml/min. The chromatographic separation of 6-monodeoxy-6-monoamino-β-cyclodextrin was carried out in less than 7 minutes. The retention time was 3.8±0.07 minutes.
Finally, the amount of cyclodextrin (CD) associated to the nanoparticles was calculated as the difference between the amount of CD initially added and the amount of CD quantified in the supernatants.

| Associated CD | Compound |
| --- | --- |
| ~70 µg/mg | 2-hydroxypropyl-β-cyclodextrin [OH-β-CD] |
| about 90 μg/mg | OC[C@H]1O[C@@H]2O[C@H]3[C@H](O)[C@@H](O)[C@@H](O[C@H]4[C@H](O)[C@@H](O)[C@@H](O[C@H]5[C@H](O)[C@@H](O)[C@@H](O[C@H]6[C@H](O)[C@@H](O)[C@@H](O[C@H]7[C@H](O)[C@@H](O)[C@@H](O[C@H]8[C@H](O)[C@@H](O)[C@@H](O[C@H]1[C@H](O)[C@H]2O)O[C@@H]8CO)O[C@@H]7CO)O[C@@H]6CO)O[C@@H]5CO)O[C@@H]4CO)O[C@@H]3CO [β-CD, β-cyclodextrin] |
| ~70 µg/mg | NC[C@H]1O[C@@H]2O[C@H]3[C@H](O)[C@@H](O)[C@@H](O[C@H]4[C@H](O)[C@@H](O)[C@@H](O[C@H]5[C@H](O)[C@@H](O)[C@@H](O[C@H]6[C@H](O)[C@@H](O)[C@@H](O[C@H]7[C@H](O)[C@@H](O)[C@@H](O[C@H]8[C@H](O)[C@@H](O)[C@@H](O[C@H]1[C@H](O)[C@H]2O)O[C@@H]8CO)O[C@@H]7CO)O[C@@H]6CO)O[C@@H]5CO)O[C@@H]4CO)O[C@@H]3CO [NH-β-CD, 6-monodeoxy-6-monoamino-β-cyclodextrin] |

— US9522197B2, “Nanoparticles comprising a cyclodextrin and a biologically active molecule and uses thereof” (INNOUP FARMA, S.L., priority 2007, dated 2016)
